The text below walks through data of patent US12215132B2, “Methods, compositions and uses thereof for reversing sarcopenia” (The Trustees of Columbia University in the City of New York, priority 2020, dated 2025).

“Also recorded” adds a separate entry of the source. Like-named read-outs stand apart in the source and are kept apart here.

Data set [1] deals with dexamethasone-treated mice. The method, then: It was also further examined whether an osteocalcin treatment might preserve muscle function and/or muscle mass in a clinically relevant mouse model of sarcopenia.
In another recognized model of sarcopenia, the efficacy of osteocalcin has been tested. Specifically, dexamethasone delivered by pumps ([…]) for 28 days has been used in mice. Another group of mice received Dexamethasone plus osteocalcin also delivered by pumps.
FIG. 9A and FIG. 9B show exemplary graphs pf exemplary modeling sarcopenia in mice.

Data set [2] relates to young and 12 to 15 month-old mice. To be noted: data of WO 2016/081728, cited from earlier work.
Another data set has as its system animal models. To be noted: in vivo.
A further data set deals with Liver Factor 1. Put plainly: Liver Factor 1 production during exercise. The class given is in vivo. The text has this: OCN signaling in the liver is required for exercise capacity (see FIG. 6). OCN enhances Liver Factor 1 production during exercise (see FIG. 7). Liver Factor 1 mediates OCN regulation of exercise capacity (see FIG. 8).
[3] abbreviates: dexamethasone-treated mice, co-treatment with test substance.
[4] abbreviates: one-month chronic infusion of dexamethasone, mice.

Turning to `N#Cc1ccc(N2CCC[C@@H]2[C@@H](O)C(F)(F)F)cc1C(F)(F)F` [VK5211, reference compound], in data set [1] (setting [3]), the muscle mass result was “fully restored muscle mass to normal levels” and the “running capacity / exercise capacity” value was “modest effect”.

Regarding `C[C@@H]1C[C@H]2[C@@H]3CCC4=CC(=O)C=C[C@]4(C)[C@@]3(F)[C@@H](O)C[C@]2(C)[C@@]1(O)C(=O)CO` [dexamethasone, reference compound], in data set [1] (mouse, in vivo), the “ability to run on a treadmill” value was “decreased” and the muscle mass entry is recorded as “decreased”. Besides, in data set [1] (setting [4]), the “decrease of gastrocnemius muscle mass” value is on record as 30% and the “reduction of running capacity” value is 50%.

As for “osteocalcin: Osteocalcin, a bone-derived hormone; small (46-50 amino acid residues) bone specific protein (YLYQWLGAPVPYPDPLEPRREVCELNPDCDELADHIGFQEAYRR; listed as Homo sapiens)”, the IL-6 result in data set [1] (Dex-induced sarcopenia) is “favors IL-6”. Moreover, the “muscle function versus muscle mass; comparison with VK5211” value in data set [1] (Dex-induced sarcopenia) is listed as “outperforms”; in data set [1] (Dex-induced sarcopenia, listed as OCN) it was “mainly targets muscle function”. Also, the muscle mass entry in data set [1] (dexamethasone-treated mice, co-treatment with test substance, listed as OCN) is “marginal effect”. Also, in data set [1] (mouse, in vivo), the off-target effects result is “no overt off-target effects”. Further, the “deleterious effect of dexamethasone on muscle function” value in data set [1] (osteocalcin given to mice that had already received dexamethasone for two weeks) is recorded as “partially revert”. The exercise capacity entry is given as “confers to 15 months-old mice exercise capacity of 3 month-old mice; also recorded: confers to 12 to 15 month-old mice the exercise capacity of 3 month-old mice” in data set [2] (12 to 15 month-old mice) and “increases the exercise capacity” in data set [2] (young mice). In addition, the negative side-effects result in the data set on animal models is on record as “safe with no recorded negative side-effects”. The “Liver Factor 1 production” value in the data set on Liver Factor 1 was “enhances”.
